# Literature values in patent US20230167505A1, “CIRCULATING TUMOR DNA AS A BIOMARKER FOR LEUKEMIA TREATMENT” (Cardiff Oncology, Inc., priority 2020, published 2023).
# Conditions: in vivo; cited from earlier work
smiles,measurement,value
CC[C@@H]1C(=O)N(C)c2cnc(Nc3ccc(C(=O)N[C@H]4CC[C@H](N5CCN(CC6CC6)CC5)CC4)cc3OC)nc2N1C(C)C [volasertib],half-life,~120 h
